Source: ChEMBL document CHEMBL2146392, “Minutissamides E-L, antiproliferative cyclic lipodecapeptides from the cultured freshwater cyanobacterium cf. Anabaena sp” (Bioorg Med Chem, 2012)
The source made the active and inactive calls. The rule behind the calls is not given here.

Key:
[1] = test system: Mycolicibacterium smegmatis; assay: Antibacterial activity against Mycobacterium smegmatis at 10 ug/ml; format: functional, organism-based
[2] = test system: Streptococcus pneumoniae; assay: Antibacterial activity against Streptococcus pneumoniae at 10 ug/ml; format: functional, organism-based
[3] = test system: Escherichia coli; assay: Antibacterial activity against Escherichia coli at 10 ug/ml; format: functional, organism-based
[4] = test system: Enterococcus faecalis; assay: Antibacterial activity against Enterococcus faecalis at 10 ug/ml; format: functional, organism-based
[5] = test system: Acinetobacter baumannii; assay: Antibacterial activity against Acinetobacter baumannii at 10 ug/ml; format: functional, organism-based
[6] = test system: Pseudomonas aeruginosa; assay: Antibacterial activity against Pseudomonas aeruginosa at 10 ug/ml; format: functional, organism-based
[7] = test system: Staphylococcus aureus; assay: Antibacterial activity against Staphylococcus aureus at 10 ug/ml; format: functional, organism-based
[8] = test system: MDA-MB-435; assay: Antiproliferative activity against human MDA-MB-435 cells assessed as cell viability at 1 ng/ml after 96 hrs; format: functional; conditions: MDA-MB-435, 96 h, read-out: Activity

SMILES | Activity [1] | Activity [2] | Activity [3] | Activity [4] | Activity [5] | Activity [6] | Activity [7] | viability at 0.001 µg/mL [8]
C/C=C1/NC(=O)[C@H](C(C)C)NC(=O)[C@H](O)[C@@H]([C@@H](C)CCCCCCCC(Cl)CC)NC(=O)[C@@H]2CCCN2C(=O)[C@H](CC(N)=O)N(C)C(=O)[C@H]([C@@H](C)OC)NC(=O)[C@@H](C)NC(=O)[C@H](CCC(N)=O)NC(=O)[C@H]([C@@H](C)O)NC(=O)[C@H]([C@@H](C)O)NC1=O (stereo partly drawn) | inactive | inactive | inactive | inactive | inactive | inactive | inactive | 
CC[C@]1(O)C[C@@H]2CN(CCc3c([nH]c4ccccc34)[C@@](C(=O)OC)(c3cc4c(cc3OC)N(C)[C@H]3[C@@](O)(C(=O)OC)[C@H](OC(C)=O)[C@]5(CC)C=CCN6CC[C@]43[C@@H]65)C2)C1 [VINBLASTINE] |  |  |  |  |  |  |  | 49%
C/C=C1/NC(=O)[C@H](C(C)C)NC(=O)[C@H](O)[C@@H]([C@@H](C)CCCCCCCCCCC(=O)CCC)NC(=O)[C@@H]2CCCN2C(=O)[C@H](CC(N)=O)N(C)C(=O)[C@H]([C@@H](C)OC)NC(=O)[C@@H](C)NC(=O)[C@H](CCC(N)=O)NC(=O)[C@H](C(C)C)NC(=O)[C@H]([C@@H](C)O)NC1=O | inactive | inactive | inactive | inactive | inactive | inactive | inactive | 
C/C=C1/NC(=O)[C@H](C(C)C)NC(=O)[C@H](O)[C@@H]([C@@H](C)CCCCCCCC(Cl)CC)NC(=O)[C@@H]2CCCN2C(=O)[C@H](CC(N)=O)N(C)C(=O)[C@H]([C@@H](C)OC)NC(=O)CNC(=O)[C@H](CCC(N)=O)NC(=O)[C@H]([C@@H](C)O)NC(=O)[C@H]([C@@H](C)O)NC1=O (stereo partly drawn) | inactive | inactive | inactive | inactive | inactive | inactive | inactive | 
C/C=C1/NC(=O)[C@H](C(C)C)NC(=O)[C@H](O)[C@@H]([C@@H](C)CCCCCCCCCCC(O)CCC)NC(=O)[C@@H]2CCCN2C(=O)[C@H](CC(N)=O)N(C)C(=O)[C@H]([C@@H](C)OC)NC(=O)[C@@H](C)NC(=O)[C@H](CCC(N)=O)NC(=O)[C@H]([C@@H](C)O)NC(=O)[C@H]([C@@H](C)O)NC1=O (stereo partly drawn) | inactive | inactive | inactive | inactive | inactive | inactive | inactive | 
C/C=C1/NC(=O)[C@H](C(C)C)NC(=O)[C@H](O)[C@@H]([C@@H](C)CCCCCCCCCCC(=O)CCC)NC(=O)[C@@H]2CCCN2C(=O)[C@H](CC(N)=O)N(C)C(=O)[C@H]([C@@H](C)OC)NC(=O)CNC(=O)[C@H](CCC(N)=O)NC(=O)[C@H]([C@@H](C)O)NC(=O)[C@H]([C@@H](C)O)NC1=O | inactive | inactive | inactive | inactive | inactive | inactive | inactive | 
C/C=C1/NC(=O)[C@H](C(C)C)NC(=O)[C@H](O)[C@@H]([C@@H](C)CCCCCCCCCCC(=O)CCC)NC(=O)[C@@H]2CCCN2C(=O)[C@H](CC(N)=O)N(C)C(=O)[C@H]([C@@H](C)OC)NC(=O)[C@@H](C)NC(=O)[C@H](CCC(N)=O)NC(=O)[C@H]([C@@H](C)O)NC(=O)[C@H]([C@@H](C)O)NC1=O | inactive | inactive | inactive | inactive | inactive | inactive | inactive | 
